Data taken from patent US11548868B2, “Heterocyclic compounds, compositions comprising heterocyclic compound, and methods of use thereof” (JS INNOPHARM (SHANGHAI) LTD, priority 2017, dated 2023).

Experiments:
[1] = biological target: T1, TDO2 in A172 cancer cells (Homo sapiens, UniProt P48775); test: TDO2 Cellular Assay (kynurenine production in A172 cancer cells); assay type: cell-based; conditions: L-Trp 1 mM, 24 hours incubation, kynurenine at 490 nm
T1 construct: endogenous in cells; host or cells: A172 cancer cells
Summary of the method: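 A172 cells seeded overnight, then given 1 mM L-Trp and test compound (0–25 μM, 0.25% DMSO) for 24 h at 37 °C. Supernatant treated with TCA at 50 °C to convert N-formylkynurenine, kynurenine detected with p-dimethylaminobenzaldehyde at 490 nm; IC50 by non-linear regression of inhibition versus DMSO control.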

[2] = biological target: T2, IDO1 in Hela cancer cells (Homo sapiens, UniProt P14902); test: IDO1 Cellular Assay (kynurenine production in IFN-γ stimulated Hela cancer cells); assay type: cell-based; conditions: human IFN-γ 50 ng/mL, 48 hours incubation, kynurenine at 490 nm
T2 construct: endogenous in cells; host or cells: Hela cancer cells stimulated with human IFN-γ
Summary of the method: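 HeLa cells stimulated with 50 ng/mL IFN-γ (final) and treated 48 h with compound (0–25 μM final, 0.25% DMSO). Supernatant kynurenine measured after TCA hydrolysis and p-dimethylaminobenzaldehyde reaction at 490 nm; inhibition vs DMSO control, IC50 by non-linear regression.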

T2 sequence (P14902 whole entry): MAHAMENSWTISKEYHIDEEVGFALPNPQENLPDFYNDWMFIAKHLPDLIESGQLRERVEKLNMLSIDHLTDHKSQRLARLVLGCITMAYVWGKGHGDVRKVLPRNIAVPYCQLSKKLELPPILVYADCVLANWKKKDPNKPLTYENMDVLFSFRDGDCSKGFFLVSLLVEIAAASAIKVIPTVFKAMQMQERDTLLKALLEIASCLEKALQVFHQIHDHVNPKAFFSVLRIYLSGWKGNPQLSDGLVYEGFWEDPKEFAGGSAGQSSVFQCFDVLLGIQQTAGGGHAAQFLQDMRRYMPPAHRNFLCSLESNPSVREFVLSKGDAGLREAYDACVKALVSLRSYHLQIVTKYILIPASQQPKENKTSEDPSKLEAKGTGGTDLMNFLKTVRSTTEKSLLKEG
T1 sequence (P48775 whole entry): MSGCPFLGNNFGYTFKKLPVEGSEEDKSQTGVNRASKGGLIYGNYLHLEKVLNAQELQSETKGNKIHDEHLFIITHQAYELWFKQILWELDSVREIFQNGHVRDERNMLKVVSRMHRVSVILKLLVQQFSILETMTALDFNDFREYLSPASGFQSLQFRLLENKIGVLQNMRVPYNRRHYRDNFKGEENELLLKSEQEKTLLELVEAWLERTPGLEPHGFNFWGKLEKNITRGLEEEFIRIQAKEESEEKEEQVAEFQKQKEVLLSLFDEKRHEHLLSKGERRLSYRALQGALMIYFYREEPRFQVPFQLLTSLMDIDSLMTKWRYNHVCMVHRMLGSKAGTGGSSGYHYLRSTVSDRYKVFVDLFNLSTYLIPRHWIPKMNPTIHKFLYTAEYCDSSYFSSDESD

Compound	IC50 [1] [µM]	IC50 [2] [µM]
O=C(N[C@H]1[C@@H]2C[C@@](O)(c3cc(Cl)cc4[nH]ncc34)C[C@@H]21)c1cccnc1 [Example 148, N-((1R,3r,5S,6r)-3-(6-chloro-1H-indazol-4-yl)-3-hydroxybicyclo[3.1.0]hexan-6-yl)nicotinamide]	≤ 0.5	≤ 0.5
O=C(N[C@H]1[C@@H]2C[C@@](O)(c3cc(Cl)cc4[nH]ncc34)C[C@@H]21)c1cncc(F)c1 [Example 173, N-((1R,3r,5S,6r)-3-(6-chloro-1H-indazol-4-yl)-3-hydroxybicyclo[3.1.0]hexan-6-yl)-5-fluoronicotinamide]	≤ 0.5	0.5 to 1
O=C(N[C@H]1[C@@H]2C[C@@](O)(c3cc(Cl)cc4[nH]ncc34)C[C@@H]21)c1cccc(F)c1 [Example 143, N-((1R,3r,5S,6r)-3-(6-chloro-1H-indazol-4-yl)-3-hydroxybicyclo[3.1.0]hexan-6-yl)-3-fluorobenzamide]	≤ 0.5	≤ 0.5
CS(=O)(=O)N1C[C@H]2CC(C(O)c3cc(Cl)cc4cn[nH]c34)C[C@H]2C1 (stereo partly drawn) [Example 113, (5-chloro-1H-indazol-7-yl)((3aR,6aS)-2-(methylsulfonyl)octahydrocyclopenta[c]pyrrol-5-yl)methanol]	1 to 5	1 to 5
CC1(C)[C@H]2CN(c3cc(C(F)(F)F)cn4cncc34)C[C@H]2CN1S(C)(=O)=O (racemic) [Example 46, Racemic-8-((3aR,6aS)-4,4-dimethyl-5-(methylsulfonyl)hexahydropyrrolo[3,4-c]pyrrol-2(1H)-yl)-6-(trifluoromethyl)imidazo[1,5-a]pyridine]	1 to 5	> 5
CC(=O)N1C[C@@H]2CN(c3c(C(F)(F)F)ccc4cncn34)C[C@@H]2C1(C)C (racemic) [Example 47, Racemic-1-((3aS,6aR)-1,1-dimethyl-5-(6-(trifluoromethyl)imidazo[1,5-a]pyridin-5-yl)hexahydropyrrolo[3,4-c]pyrrol-2(1H)-yl)ethanone]	> 5	> 5
O=C(c1nc2cc(Cl)ccc2[nH]1)N1C[C@@H]2C[C@@](O)(c3cc(Cl)cc4[nH]ncc34)C[C@@H]2C1 [Example 134, (5-chloro-1H-benzo[d]imidazol-2-yl)((3aR,5r,6aS)-5-(6-chloro-1H-indazol-4-yl)-5-hydroxyhexahydrocyclopenta[c]pyrrol-2(1H)-yl)methanone]	≤ 0.5	1 to 5
O=C(N[C@H]1[C@@H]2C[C@@](O)(c3cc(Cl)cc4[nH]ncc34)C[C@@H]21)c1cnon1 [Example 159, N-((1R,3r,5S,6r)-3-(6-chloro-1H-indazol-4-yl)-3-hydroxybicyclo[3.1.0]hexan-6-yl)-1,2,5-oxadiazole-3-carboxamide]	≤ 0.5	> 5
O=C(Nc1ccccc1)N[C@H]1[C@@H]2C[C@@](O)(c3cc(Cl)cc4cn[nH]c34)C[C@@H]21 [Example 132, 1-((1R,3r,5S,6r)-3-(5-chloro-1H-indazol-7-yl)-3-hydroxybicyclo[3.1.0]hexan-6-yl)-3-phenylurea]	0.5 to 1	1 to 5
O=C(N[C@H]1[C@@H]2C[C@@](O)(c3cc(Cl)cc4cn[nH]c34)C[C@@H]21)C1CC1 [Example 107, N-((1R,3r,5S,6r)-3-(5-chloro-1H-indazol-7-yl)-3-hydroxybicyclo[3.1.0]hexan-6-yl)cyclopropanecarboxamide]	≤ 0.5	> 5
OCC1[C@H]2C[C@](O)(c3cc(Cl)cc4[nH]ncc34)C[C@@H]12 (stereo partly drawn) [Example 111, (1R,3r,5S)-3-(6-chloro-1H-indazol-4-yl)-6-(hydroxymethyl)bicyclo[3.1.0]hexan-3-ol]	≤ 0.5	1 to 5
O=C(N[C@H]1[C@@H]2C[C@@](O)(c3cc(Cl)cc4cn[nH]c34)C[C@@H]21)c1ccncc1 [Example 130, N-((1R,3r,5S,6r)-3-(5-chloro-1H-indazol-7-yl)-3-hydroxybicyclo[3.1.0]hexan-6-yl)isonicotinamide]	1 to 5	0.5 to 1
CC(=O)N1C[C@@H]2C[C@@](O)(c3cc(Cl)cn4cncc34)C[C@@H]2C1 [Example 6, 1-((3aR,5r,6aS)-5-(6-chloroimidazo[1,5-a]pyridin-8-yl)-5-hydroxyhexahydrocyclopenta[c]pyrrol-2(1H)-yl)ethanone]	0.5 to 1	> 5
O=C(N[C@H]1[C@@H]2C[C@@](O)(c3cc(Cl)cc4[nH]ncc34)C[C@@H]21)c1cccc(OC(F)(F)F)c1 [Example 145, N-((1R,3r,5S,6r)-3-(6-chloro-1H-indazol-4-yl)-3-hydroxybicyclo[3.1.0]hexan-6-yl)-3-(trifluoromethoxy)benzamide]	≤ 0.5	≤ 0.5
CC1(C)[C@H]2CN(c3c(C(F)(F)F)ccc4cncn34)C[C@H]2CN1S(C)(=O)=O (racemic) [Example 48, Racemic-5-((3aR,6aS)-4,4-dimethyl-5-(methylsulfonyl)hexahydropyrrolo[3,4-c]pyrrol-2(1H)-yl)-6-(trifluoromethyl)imidazo[1,5-a]pyridine]	> 5	> 5
CS(=O)(=O)N[C@H]1[C@@H]2C[C@@](O)(c3cc(C(F)(F)F)cc4[nH]ncc34)C[C@@H]21 [Example 10, N-((1R,3r,5S,6r)-3-hydroxy-3-(6-(trifluoromethyl)-1H-indazol-4-yl)bicyclo[3.1.0]hexan-6-yl)methanesulfonamide]	≤ 0.5	1 to 5
NC(=O)N[C@H]1[C@@H]2C[C@@](O)(c3cc(Cl)cc4[nH]ncc34)C[C@@H]21 [Example 135, 1-((1R,3r,5S,6r)-3-(6-chloro-1H-indazol-4-yl)-3-hydroxybicyclo[3.1.0]hexan-6-yl)urea]	≤ 0.5	> 5
O=C(N[C@H]1[C@@H]2C[C@@](O)(c3cc(Cl)cc4[nH]ncc34)C[C@@H]21)c1ccncc1 [Example 83, N-((1R,3r,5S,6r)-3-(6-chloro-1H-indazol-4-yl)-3-hydroxybicyclo[3.1.0]hexan-6-yl)isonicotinamide]	≤ 0.5	0.5 to 1
CCNC(=O)N[C@H]1[C@@H]2C[C@@](O)(c3cc(Cl)cc4[nH]ncc34)C[C@@H]21 [Example 125, 1-((1R,3r,5S,6r)-3-(6-chloro-1H-indazol-4-yl)-3-hydroxybicyclo[3.1.0]hexan-6-yl)-3-ethylurea]	≤ 0.5	> 5
CC(=O)N[C@H]1[C@@H]2C[C@@](O)(c3cc(Cl)cc4[nH]ncc34)C[C@@H]21 [Example 64, N-((1R,3r,5S,6r)-3-(6-chloro-1H-indazol-4-yl)-3-hydroxybicyclo[3.1.0]hexan-6-yl)acetamide]	≤ 0.5	> 5
O=C(N[C@H]1[C@@H]2C[C@@](O)(c3cc(Cl)cc4[nH]ncc34)C[C@@H]21)c1ccc(F)c(Cl)c1 [Example 150, 3-chloro-N-((1R,3r,5S,6r)-3-(6-chloro-1H-indazol-4-yl)-3-hydroxybicyclo[3.1.0]hexan-6-yl)-4-fluorobenzamide]	≤ 0.5	≤ 0.5
NC(=O)c1cccc(C(=O)N[C@H]2[C@@H]3C[C@@](O)(c4cc(Cl)cc5[nH]ncc45)C[C@@H]32)c1 [Example 157, N1-((1R,3r,5S,6r)-3-(6-chloro-1H-indazol-4-yl)-3-hydroxybicyclo[3.1.0]hexan-6-yl)isophthalamide]	≤ 0.5	> 5
O[C@@]1(c2cc(Cl)cc3cn[nH]c23)C[C@H]2CN(c3ccncc3)C[C@H]2C1 [Example 117, (3aR,5r,6aS)-5-(5-chloro-1H-indazol-7-yl)-2-(pyridin-4-yl)octahydrocyclopenta[c]pyrrol-5-ol]	> 5	> 5
O=C(c1ccncc1)N1C[C@@H]2C[C@@](O)(c3cc(Cl)cc4[nH]ncc34)C[C@@H]2C1 [Example 40, ((3aR,5r,6aS)-5-(6-chloro-1H-indazol-4-yl)-5-hydroxyhexahydrocyclopenta[c]pyrrol-2(1H)-yl)(pyridin-4-yl)methanone]	≤ 0.5	> 5
CCNS(=O)(=O)N[C@H]1[C@@H]2C[C@@](O)(c3cc(Cl)cc4[nH]ncc34)C[C@@H]21 [Example 128, N′-ethyl-N-((1R,3r,5S,6r)-3-(6-chloro-1H-indazol-4-yl)-3-hydroxybicyclo[3.1.0]hexan-6-yl)sulfuric diamide]	≤ 0.5	0.5 to 1
O=C(N[C@H]1[C@@H]2C[C@@](O)(c3cc(Cl)cc4[nH]ncc34)C[C@@H]21)c1nc2cc(Cl)ccc2[nH]1 [Example 136, 5-chloro-N-((1R,3r,5S,6r)-3-(6-chloro-1H-indazol-4-yl)-3-hydroxybicyclo[3.1.0]hexan-6-yl)-1H-benzo[d]imidazole-2-carboxamide]	≤ 0.5	1 to 5
N#Cc1ccc(C(=O)N2C[C@@H]3C[C@@](O)(c4cc(Cl)cc5[nH]ncc45)C[C@@H]3C2)cc1 [Example 42, 4-((3aR,5r,6aS)-5-(6-chloro-1H-indazol-4-yl)-5-hydroxyoctahydrocyclopenta[c]pyrrole-2-carbonyl)benzonitrile]	≤ 0.5	1 to 5
O=C(N[C@H]1[C@@H]2C[C@@](O)(c3cc(Cl)cc4[nH]ncc34)C[C@@H]21)c1cc(F)cc(Cl)c1 [Example 152, 3-chloro-N-((1R,3r,5S,6r)-3-(6-chloro-1H-indazol-4-yl)-3-hydroxybicyclo[3.1.0]hexan-6-yl)-5-fluorobenzamide]	≤ 0.5	0.5 to 1
